In PMC3222310, “Purification and characterization of hydroquinone dioxygenase from Sphingomonas sp. strain TTNP3” (AMB Express, 2011):

T1: hydroquinone dioxygenase (HQDO) from Sphingomonas sp. strain TTNP3 (Sphingomonas sp. TTNP3, UniProt F8TW82+F8TW83)
T1 construct: gene hqdB; native enzyme purified from nonylphenol-induced cells; untagged; alpha2beta2 heterotetramer, 120 kDa by SEC, bands 38 kDa and 19 kDa; b63 order implies HqdA small and HqdB large, abstract order of identities contradicts
T1 sequence (F8TW83 1-341): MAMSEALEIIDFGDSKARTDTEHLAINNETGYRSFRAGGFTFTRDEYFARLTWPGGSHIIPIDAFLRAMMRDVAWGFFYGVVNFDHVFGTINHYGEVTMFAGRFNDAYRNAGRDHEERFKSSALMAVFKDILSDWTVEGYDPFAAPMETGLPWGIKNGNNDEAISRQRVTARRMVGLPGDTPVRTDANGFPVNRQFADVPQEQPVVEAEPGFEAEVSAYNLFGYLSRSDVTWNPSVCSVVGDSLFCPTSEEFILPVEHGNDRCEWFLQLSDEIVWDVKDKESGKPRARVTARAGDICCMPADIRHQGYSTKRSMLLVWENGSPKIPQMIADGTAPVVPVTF
T1 sequence (F8TW82 1-170): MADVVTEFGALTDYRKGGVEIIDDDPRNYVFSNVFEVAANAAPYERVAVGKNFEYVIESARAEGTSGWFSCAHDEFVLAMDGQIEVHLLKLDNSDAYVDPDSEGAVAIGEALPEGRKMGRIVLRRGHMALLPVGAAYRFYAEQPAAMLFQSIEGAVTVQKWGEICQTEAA


How the values were obtained:
[1] = biological target: T1, hydroquinone dioxygenase (HQDO) from Sphingomonas sp. strain TTNP3; assay: residual activity on HQ with inhibitor; type: biochemical
Text: residual activity on HQ with inhibitor on hydroquinone dioxygenase (HQDO) from Sphingomonas sp. strain TTNP3

purified protein = substrate: Oc1ccc(O)cc1; assay: purified protein; type: biochemical, Sphingomonas sp. TTNP3; conditions: air-saturated 50 mM Tris, pH 7.0, 25°C, kcat per heterotetramer, suicide deactivation by substrate

Row | Molecule | activity at 200 µM [1] [%] | further results
1 | O=C(O)c1ccc(O)c(O)c1 [3,4-Dihydroxybenzoate] | 94 ± 4.6 | –
2 | O=C(O)/C=C/c1ccc(O)cc1 [4-Coumaric acid] | 97 ± 1.9 | –
3 | O=C(O)c1ccc(O)cc1 [4-Hydroxybenzoate] | 46 ± 0.4 | –
4 | N#CCc1ccc(O)cc1 [4-Hydroxybenzylcyanide] | – | Activity (%) ([1]; 2 µM, substrate HQ, compound named 4-hydroxybenzonitrile in text, 4-hydroxybenzylcyanide in table): 16 ± 0.2%
5 | Oc1ccc(S)cc1 [4-Mercaptophenol] | – | activity at 20 µM [1]: 5%
6 | O=[N+]([O-])c1ccc(O)cc1 [4-Nitrophenol] | 27 ± 1.2 | –
7 | O=C1C=CC(=O)C=C1 [Benzoquinone] | – | activity at 20 µM [1]: 16 ± 0.3%
8 | O=C(O)/C=C/c1ccc(O)c(O)c1 [Caffeic acid] | – | activity at 80 µM [1]: 98 ± 2.5%
9 | Oc1ccccc1O [Catechol] | 93 ± 1.3 | –
10 | Oc1ccccc1 [Phenol] | 98 ± 1.7 | –
11 | Oc1cccc(O)c1 [Resorcinol] | 99 ± 0.5 | –
12 | COc1cc(C(=O)O)ccc1O [Vanillate] | 86 ± 1 | –
13 | COc1cc(C=O)ccc1O [Vanillin] | – | activity at 100 µM [1]: 18 ± 7.4%
14 | COc1cc(CO)ccc1O [Vanillyl alcohol] | 62 ± 1 | –
15 | hydroquinone dioxygenase (HQDO) from Sphingomonas sp. strain TTNP3 (Sphingomonas sp. TTNP3) (protein, native enzyme purified from nonylphenol-induced cells; untagged; alpha2beta2 heterotetramer, 120 kDa by SEC, bands 38 kDa and 19 kDa; b63 order implies HqdA small and HqdB large, abstract order of identities contradicts) chain 1: MAMSEALEIIDFGDSKARTDTEHLAINNETGYRSFRAGGFTFTRDEYFARLTWPGGSHIIPIDAFLRAMMRDVAWGFFYGVVNFDHVFGTINHYGEVTMFAGRFNDAYRNAGRDHEERFKSSALMAVFKDILSDWTVEGYDPFAAPMETGLPWGIKNGNNDEAISRQRVTARRMVGLPGDTPVRTDANGFPVNRQFADVPQEQPVVEAEPGFEAEVSAYNLFGYLSRSDVTWNPSVCSVVGDSLFCPTSEEFILPVEHGNDRCEWFLQLSDEIVWDVKDKESGKPRARVTARAGDICCMPADIRHQGYSTKRSMLLVWENGSPKIPQMIADGTAPVVPVTF chain 2: MADVVTEFGALTDYRKGGVEIIDDDPRNYVFSNVFEVAANAAPYERVAVGKNFEYVIESARAEGTSGWFSCAHDEFVLAMDGQIEVHLLKLDNSDAYVDPDSEGAVAIGEALPEGRKMGRIVLRRGHMALLPVGAAYRFYAEQPAAMLFQSIEGAVTVQKWGEICQTEAA | – | Km (purified protein): 2.2 ± 0.2 µM; kcat (purified protein): 13.5 s⁻¹
